Experiments:
[1] = system: leukocyte migration; experiment: Anti-inflammatory tail section assay, leukocyte migration in zebrafish; type: in vivo
Procedure: (§1) All chemicals were firstly dissolved in dimethylsulfoxide, DMSO 99.5% (GC) Sigma-Aldrich), and then diluted in embryo medium E3 (5 mM NaCl, 0.17 mM KCl, 0.33 mM CaCl2, 0.33 mM Mg2SO4, 10-5% methylene blue).
(§2) During the course of the experiments, transgenic zebrafish of the fli-1: EGFP lines were used. Once the fertilized eggs were collected, they were reared in embryo medium E3 in an incubator at 28° C. The 20 hours post fertilization (hpf), 1-phenyl-2-thiourea (PTU) (Sigma-10×(0.03%)) was added to larvae's medium in 1:9 proportion to prevent the formation of melanophores in zebrafish embryos and larvae [Karlsson, J., von Hofsten, J. and Olsson, P. Mar. Biotechnol., 2001, 3, 522-527].
The experimental corroboration of anti-inflammatory activity was done by using a new in vivo test development using zebrafish biological material [Siverio-Mota, D., de Witte, P. et al, 2009, in preparation]. The principal aspects of this new biological assay are the following. First, ten larvae from 4 dpf were used per treated and control groups. In each case, the MTC was used as the assay concentration and indomethacin (Merck Sharp & Dohme) at 30 μM was used as control group. These larvae were placed in wells of a 24 wells tissue culture plate at assay's concentrations in ImL final volume. After one hour, the larvae were anesthetized by immersion in E3 containing tricaine (Westerfield, M., The Zebrafish Book: A Guide for the Laboratory Use of Zebrafish (Brachydanio rerio). 1995, Eugene, Oreg., University of Oregon Press), the complete section of the tail was performed with a sterile scalpel. Once tails were cut, zebrafish were placed again in a 24 wells tissue culture plate at assay's concentrations together with 10 μg/mL solution of lipopolysaccharide to stimulate the leukocyte migration. The temperature of incubation was kept from 20 to 22° C. […]
Anti-inflammatory activity was evaluated following the steps described above. Leukocyte migration to damaged zone (end tail) was observed and evaluated as the parameter determining the anti-inflammatory activity of the tested compounds. […]

[2] = system: Minimal Clonic Seizure; experiment: Minimal Electroshock / Psychomotor (Minimal Clonic) Seizure test (MCS); type: in vivo, mice; conditions: for anticonvulsant activity against MCS, complex versus individual constituents: mouse, in vivo
Procedure: (§3) Anticonvulsant activities were determined by the National Institutes of Health-National Institute of Neurological Disorders and Stroke-Antiepileptic Drug Development program for the detection and evaluation of compounds as anticonvulsants agents. Compounds were suspended in polyethylene glycol prior to injection into male Carworth Farms #1 mice. In Phase I studies, identification of anti-convulsant activity, test compounds were given intraperitonealy (ip) at 57, 188 and 570 milligrams-per-kilogram (mg/kg) of body mass, and protection against Maximal Electroshock (MES), Minimal Electroshock (MCS) and/or Metrazol (scMET) induced seizures was determined 30 min and 4 h later. All statistics were obtained by Probit analysis.
This test was designed to detect compounds that are missed with the MES tests which employ a larger current of 50 mA. The delivery of a less intense electric stimulation which produces less intense stimulation of the CNS (Central Nervous System) and brain inflammation than the MES test, via corneal electrodes of 6 Hz, 32 mA or slightly higher current, for 3 s, is used to produce psychomotor seizures, following instillation of a drop of 0.9% saline solution prior to this application of electric current. Abolition of the visual stereotypic behavior characterized as minimal automatist behaviors, similar to the aura that human patients experience during psychomotor seizure, is defined as antipsychomotor seizure activity.

[3] = system: zebrafish larvae; experiment: Toxicological evaluation (Maximum Tolerated Concentration) in zebrafish larvae; type: in vivo; conditions: 100 µM; 24 h exposure of larvae
Procedure: as §1, §2
The Maximum Tolerated Concentration (MTC) was defined as the maximum concentration at which no death or signs of toxicity (in the circulatory system) were observed.
The MTC in the fish water was initially determined by incubating zebrafish larvae resulting from 4 days post fertilization (dpf) with compounds assayed in E3. During 24 hours, 5 larvae of zebrafish per well were placed in a tissue culture in 24 well plates using tested compounds at 10 μM, 30 μM and 100 μM concentration in the medium. Following the 24 h period of incubation, the characteristics of the zebrafish larvae were examined. The MTC were determined in treated groups at 5 dpf after 24 h exposure to the tested drugs.

[4] = system: Maximal Electroshock (MES) induced seizures; experiment: Maximal Electroshock Seizure (MES) test; type: in vivo; conditions: mice ip 57, 188, or 570 µmg/kg; challenge 0.5 and 4 h after treatment
Procedure: as §3, with “([…])” for “(ip) at 57, 188 and 570 milligrams-per-kilogram (mg/kg)”
Maximal electroshock seizure (MES) were elicited with a 60 cycles alternating current of 50 mA, five to seven times that necessary to elicit minimal electroshock seizures, delivered for 0.2 s via corneal electrodes. A drop of 0.9% saline solution was instilled into both eyes prior to application of electrodes in order to prevent death. Abolition of the hind limb tonic extension component of seizure is defined as anticonvulsant activity.

[5] = system: Metrazol (scMET) induced seizures; experiment: Subcutaneous Metrazol seizure threshold test (scMET), mice; type: in vivo
Procedure: Anticonvulsant activities were determined by the National Institutes of Health-National Institute of Neurological Disorders and Stroke-Antiepileptic Drug Development program for the detection and evaluation of compounds as anticonvulsants agents. Compounds were suspended in polyethylene glycol prior to injection into male Carworth Farms #1 mice. […] All statistics were obtained by Probit analysis.
A dose of Pentylenetetrazol, a potent CNS stimulant, which produces seizures in greater than 97% of treated mice, at 85 mg/kg of body mass, was administered s.c. as a 0.5% saline solution at the posterior neck midline. […] Failure to observe even a threshold seizure, a single episode of clonic spasms of at least five second duration, is defined as anticonvulsant activity.

[6] = system: MET-induced seizures; experiment: Metrazol seizure test, oral treatment of rats; type: in vivo; conditions: rats oral 94 μmol/kg
[7] = Rotating rod test (Rotorod Toxicity), mice; type: in vivo; conditions: for Rotorod Toxicity: challenge 0.5 and 4 h
From the text: (§4) This qualitative test was used to evaluate ‘neurotoxicity’, central nervous system stimulation or depression. Depression of CNS activity is a common feature of all antiepileptic drugs. Mice or rats are placed on a 1 inch diameter knurled plastic rod rotating at 6 revolutions per min. Normal mice and rats can remain on a rod rotating at this speed indefinitely. […] It may be attributed to CNS depression due to sedative and/or hypnotic activities, or a state of eminent death, due to medullary paralysis at high doses, a common unwanted side effect caused by high doses of all anticonvulsant drugs.

[8] = Rotating rod test (Rotorod Toxicity), rats; type: in vivo; conditions: rats oral 94 μmol/kg; challenge 0.25, 0.5, 1, 2, and 4 h
From the text: as §4

Compound: COc1ccc2c(c1)c(CC(=O)O)c(C)n2C(=O)c1ccc(Cl)cc1 [indomethacin, reference compound]
- percentage of relative leukocyte's migration ([1]; positive control, indomethacin at 30 μM): 20%

Compound: CCCC(CCC)C(=O)[O-].CCCC(CCC)C(=O)[O-].CCCC(CCC)C(=O)[O-].CCCC(CCC)C(=O)[O-].[Cu+2].[Cu+2] [Compound 3, Tetrakis-μ-2-propylpentanoato dicopper(II)]
- percentage of relative leukocyte's migration ([1]; zebrafish larvae, tail section + lipopolysaccharide, tested at MTC, 7 h): 60%

Compound: CCCC(CCC)C(=O)O [sodium valproate, reference compound]
- ED50 ([2]; Mus musculus, same paradigm, sodium valproate): 2800 µmol/kg

Compound: c1cnc2c(c1)ccc1cccnc12 [phenanthroline, 1,10-phenanthroline, reference compound]
- anticonvulsant activity against MCS, complex versus individual constituents [2]: no anticonvulsant of activity

Compound: copper acetate [reference compound]
- anticonvulsant activity against MCS, complex versus individual constituents [2]: no anticonvulsant of activity

Compound: CCCC(CCC)C(=O)[O-].CCCC(CCC)C(=O)[O-].[Mg+2] [Compound 7]
- toxicity in zebrafish [3]: did not show any toxicity
- anti-inflammatory result, ranking in words ([1]; zebrafish): best result

Compound: CCCC(CCC)C(=O)[O-].CCCC(CCC)C(=O)[O-].[Cu+2].c1cnc2c(c1)ccc1cccnc12 [Compound 4, bis-(2-propylpentanoato)(1,10-phenanthroline)copper(II)]
- anticonvulsant activity, MES challenge [4]: inactive
- TPE (Time to Peak Effect) ([2]; 18 μmol/kg): 2 h
- activity against Minimal Clonic seizure ([2]; 18 mol/kg, challenge times 1, 2, and 4 h): activity was found
- ED50, Minimal Clonic seizure ([2]; mice): 8 µmol/kg
- toxicity observed in MCS test ([2]; mice 188 μmol/kg, 0.25, 0.5, 1, and 2 h): inability to grasp the rotating rod
- deaths in MCS test ([2]; mice 188 μmol/kg, 2 h challenge time): three deaths
- deaths in MCS test ([2]; mice 188 μmol/kg, before the 4 h challenge): all mice died
- activity against Minimal Clonic seizure ([2]; mice 188 μmol/kg, challenge 0.25, 0.5, 1, and 2 h): active
- toxicity in MCS test ([2]; mice 2.25, 4.5, 9, 18, and 36 μmol/kg, 2 h): absence of toxicity
- protection against the Minimal Clonic seizure ([2]; mice 2.25, 4.5, 9, 18, and 36 μmol/kg, challenge at 2 h): dose-related increase in protection
- deaths in MCS test ([2]; mice ip 94 μmol/kg, after the 2 h challenge): two deaths
- protection against Minimal Clonic Seizure ([2]; mice ip 94 μmol/kg, challenge 0.25, 0.5, 1, and 2 h): protected
- toxicity observed in MCS test ([2]; mice ip 94 μmol/kg, most mice): Minimal motor impairment
- deaths in MCS test ([2]; mice ip 94 μmol/kg, prior to challenge at 4 h): All treated mice died
- anticonvulsant activity against MCS, complex versus individual constituents [2]: μmolar level
- deaths in scMET test ([5]; 188 μmol/kg at 4 h challenge and 570 μmol/kg at 0.5 challenge time): deaths occurring without seizure
- anticonvulsant activity, scMET seizure model ([5]; mice 5.7, 19, 57, 188, and 570 μmol/kg, challenge 0.5 and 4 h): inactive
- adverse effects in MET test [6]: continuous seizure activity, death following continuous seizure activity, or tonic seizure extension
- protection against MET-induced seizures ([6]; challenge 0.25, 0.5, 1, 2, and 4 h): not protective
- deaths in Rotorod test ([7]; mice 188 μmol/kg, 4 h challenge time): three deaths
- Rotorod Toxicity ([7]; mice 188 μmol/kg, impaired ability to grasp the rotating rod): observed
- Rotorod Toxicity ([7]; mice 570 μmol/kg): impaired ability to grasp the rotating rod, sedation, and deaths without seizure
- Rotorod Toxicity ([7]; mice ip 5.7, 19, and 57 μmol/kg): not observed
- Rotorod Toxicity [8]: failed to evidence Rotorod Toxicity

Compound: [Cl][Cu][Cl] [copper chloride, reference compound]
- anticonvulsant activity against MCS, complex versus individual constituents [2]: no anticonvulsant of activity

Compound: CCCC(CCC)C(=O)O [valproic acid, 2-propylpentanoic acid]
- anticonvulsant activity against MCS, complex versus individual constituents [2]: much less potency

— patent publication US20160166705A1, “THERAPEUTICAL USE OF TERNARY COMPLEXES OF VALPROIC ACID” (UNIVERSITE PARIS-SUD XI, priority 2009, published 2016)
